Measured values taken from patent US8895744B2, “Alfa-carboline inhibitors of NPM-ALK, RET, and Bcr-Abl” (Universita' Degli Studi di Milano-Bicocca, priority 2008, dated 2014).
Where two headings read alike, the source gives them in different places.

Assays:
[1] = test system: NPM/ALK positive SUDHL-1 cells; test: Tritiated thymidine uptake cell proliferation assay, SUDHL-1; type: cell-based; settings: 3[H]-thymidine uptake, 72 h
Description: Inhibition of the proliferation of NPM/ALK positive cells
(§1) Method: Tritiated Thymidine Uptake Cell Proliferation Assay
(§2) The following procedure was used with parent untransformed BaF3 cells, BaF3 cells transformed with the oncogenic fusion protein NPM/ALK, NPM/ALK positive SUDHL-1 cells, ALK-negative U937 cells, NPM/ALK positive KARPAS-299 cells. The parent untransformed BaF3 cells and Alk-negative U937 cells are used as controls. Cells were seeded in U-bottomed 96-well plates at 10 000 cells/well in a volume of 100 μL in supplemented medium. In the case of the parent untransformed BaF3 cells, the medium was supplemented with IL-3. Serial dilutions of inhibitors were added to the appropriate wells and volumes adjusted to 200 μL. Controls were treated with the equivalent volume of vehicle, DMSO, alone. Plates were incubated at 37° C. for 72 h. ^3[H]-thymidine (1 μCi/well) was added for the last 16 h of incubation. Cells were harvested on to paper filters and ^3[H]-thymidine incorporation was measured using a β scintillation counter (1430 MicroBeta, Wallac, Turku, Finland). The 50% inhibitory concentration (IC50) was defined as the concentration of inhibitor, expressed in micromolar, that gave a 50% decrease in ^3[H]-thymidine uptake compared with controls.

[2] = target: T1, BaF3 cells transformed with the oncogenic fusion protein NPM/ALK (Homo sapiens, UniProt Q9UM73); test: Tritiated thymidine uptake cell proliferation assay, BaF3 NPM/ALK; type: cell-based; settings: 3[H]-thymidine uptake, 72 h; read-out: BaF NPM/ALK IC50
T1 construct: fused on or other part: P06748 (Nucleophosmin)
Summary of the method: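 Cells were seeded at 10 000/well with serial inhibitor dilutions or DMSO vehicle and incubated 72 h at 37 °C, with ^3[H]-thymidine (1 μCi/well) added for the final 16 h. Incorporation was read by β scintillation counting. IC50 (μM) is the concentration giving a 50% decrease in uptake versus controls.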

[3] = target: T2, Recombinant ALK kinase (Homo sapiens, UniProt Q9UM73); test: ALK kinase inhibitory activity, ELISA-based in vitro kinase assay; type: biochemical
T2 construct: made in house; host or cells: Sf9 insect cells (baculovirus)
Summary of the method: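 Sf9-expressed, purified recombinant ALK phosphorylated a plate-coated peptide substrate with 0.3 mM ATP, Mn2+/Mg2+, pH 7.5, 15 min at 30° C, after 10 min inhibitor preincubation. Phosphotyrosine was detected by anti-pTyr ELISA (TMB, A450); IC50 in μM is the concentration giving 50% inhibition relative to control.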

[4] = test system: ALK-negative U937 cells; test: Tritiated thymidine uptake cell proliferation assay, U937 (control); type: cell-based; settings: Homo sapiens, U-937; 3[H]-thymidine uptake, 72 h
Description: as §1
as §2, with “with controls. […]” for “with controls.”
as §2, with “RET-PTC2, or RET-negative 11937” for “NPM/ALK, NPM/ALK positive SUDHL-1 cells, ALK-negative U937 cells, NPM/ALK positive KARPAS-299”, “RET-negative” for “Alk-negative”

[5] = test system: parent untransformed BaF3 cells; test: Tritiated thymidine uptake cell proliferation assay, parental BaF3 (control); type: cell-based; settings: Mus musculus, 3[H]-thymidine uptake, 72 h, medium with IL-3, read-out: BaF parental IC50
Summary of the method: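 Control lines were parental BaF3 in IL-3-supplemented medium and ALK-, Abl- or RET-negative U937, seeded at 10 000 cells/well with serial inhibitor dilutions for 72 h at 37 °C. ³H-thymidine (1 μCi/well) was added for the final 16 h; IC50 (μM) is the concentration halving uptake versus DMSO.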

[6] = target: T3, Recombinant Ret protein (Homo sapiens, UniProt P07949); test: RET kinase inhibitory activity, ELISA-based in vitro kinase assay; type: biochemical; settings: purified Ret, 0.3 mM ATP
T3 construct: made in house; host or cells: Sf9 cells (baculovirus)
Description: Recombinant ALK kinase was expressed in Sf9 insect cells using the pBlueBacHis2C baculovirus vector system and purified using an anion exchange Fast Flow Q-sepharose column (Amersham-Pharmacia Biotech) followed by HiTrap™-nickel affinity column (Amersham-Pharmacia Biotech). Purified ALK protein was used to screen inhibitors in the ELISA-based kinase assay. A Nunc Immuno 96 well plate was incubated overnight at 37° C. with coating solution (125 μL/well) containing ALK peptide substrate ([…]) (SEQ ID NO: 1) at various concentrations in PBS. Wells were then washed with 200 μL of wash buffer (PBS-Tween 0.05%) and left to dry for at least 2 h at 37° C. The kinase reaction was performed in the presence of 50 mM Tris pH 7.5, 5 mM MnCl2, 5 mM MgCl2, 0.3 mM ATP and purified rALK in a total volume of 100 μL/well at 30° C. for 15 min. For inhibitor testing the reaction mix was preincubated with the inhibitor or solvent control for 10 min at room temperature before transferring to the ELISA plate. After the reaction wells were washed 5 times with 200 μL of wash buffer. Phosphorylated peptide was detected using 100 μL/well of a mouse monoclonal anti-phosphotyrosine antibody (clone 4G10 Upstate Biotech Ltd) diluted 1:2000 in PBS+4% BSA. After 30 min incubation at room temperature the antibody was removed and wells were washed as described above. 100 μL of a secondary antibody (anti-mouse IgG, Horseradish Peroxidase linked whole antibody, Amersham Pharmacia Biotech) diluted 1:1000 in PBS+4% BSA was added to each well and the plate was incubated again for 30 min at room temperature before washing as above. The plate was developed using 100 μL/well TMB Substrate Solution (Endogen) and the reaction was stopped by adding an equiv.ual volume of H2SO4 0.36 M. Finally, the absorbance was read at 450 nm using an Ultrospec® 300 spectrophotometer (Amersham-Pharmacia Biotech). The concentration of the test solution showing 50% inhibition as compared with the control was expressed as IC50 (μM).
38. RET Kinase Inhibitory Activity
Method: ELISA-Based In Vitro Kinase Assay
Recombinant Ret protein was expressed in Sf9 cells using the pBlueBacHis2C baculovirus expression vector. Ret was purified using an anion exchange Fast Flow Q-sepharose column (Amersham-Pharmacia Biotech) followed by HiTrap™-nickel affinity column (Amersham-Pharmacia Biotech). Purified Ret was used in the ELISA-based kinase assay to screen inhibitors as described above. The kinase reaction was performed in the presence of 50 mM Tris pH 7.5, 1 mM MnCl2, 5 mM MgCl2, 0.3 mM ATP, peptide substrate ([…]) (SEQ ID NO: 1) and purified Ret. The concentration of the test solution showing 50% inhibition as compared with the control was expressed as IC50 (μM).

[7] = target: T4, Recombinant Abl T315I protein (Homo sapiens, UniProt P00519, T315I); test: Abl T315I mutant kinase inhibitory activity, ELISA-based in vitro kinase assay; type: biochemical; settings: purified Abl T315I, 0.3 mM ATP
T4 construct: made in house; host or cells: Sf9 cells (baculovirus)
Summary of the method: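 His-tagged human Abl T315I from Sf9 cells, preincubated 10 min at room temperature with inhibitor, then reacted on peptide-coated plates with 0.3 mM ATP, 1 mM MnCl2, 5 mM MgCl2 in 50 mM Tris pH 7.5. Phosphotyrosine detected by anti-pTyr/HRP ELISA at 450 nm; IC50 as 50% inhibition vs control.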

[8] = purified rALK, 0.3 mM ATP, read-out: ALK IC50
[9] = repeated determinations, 1st, read-out: ALK IC50, 1st determination

T2 sequence (Q9UM73 19-1620): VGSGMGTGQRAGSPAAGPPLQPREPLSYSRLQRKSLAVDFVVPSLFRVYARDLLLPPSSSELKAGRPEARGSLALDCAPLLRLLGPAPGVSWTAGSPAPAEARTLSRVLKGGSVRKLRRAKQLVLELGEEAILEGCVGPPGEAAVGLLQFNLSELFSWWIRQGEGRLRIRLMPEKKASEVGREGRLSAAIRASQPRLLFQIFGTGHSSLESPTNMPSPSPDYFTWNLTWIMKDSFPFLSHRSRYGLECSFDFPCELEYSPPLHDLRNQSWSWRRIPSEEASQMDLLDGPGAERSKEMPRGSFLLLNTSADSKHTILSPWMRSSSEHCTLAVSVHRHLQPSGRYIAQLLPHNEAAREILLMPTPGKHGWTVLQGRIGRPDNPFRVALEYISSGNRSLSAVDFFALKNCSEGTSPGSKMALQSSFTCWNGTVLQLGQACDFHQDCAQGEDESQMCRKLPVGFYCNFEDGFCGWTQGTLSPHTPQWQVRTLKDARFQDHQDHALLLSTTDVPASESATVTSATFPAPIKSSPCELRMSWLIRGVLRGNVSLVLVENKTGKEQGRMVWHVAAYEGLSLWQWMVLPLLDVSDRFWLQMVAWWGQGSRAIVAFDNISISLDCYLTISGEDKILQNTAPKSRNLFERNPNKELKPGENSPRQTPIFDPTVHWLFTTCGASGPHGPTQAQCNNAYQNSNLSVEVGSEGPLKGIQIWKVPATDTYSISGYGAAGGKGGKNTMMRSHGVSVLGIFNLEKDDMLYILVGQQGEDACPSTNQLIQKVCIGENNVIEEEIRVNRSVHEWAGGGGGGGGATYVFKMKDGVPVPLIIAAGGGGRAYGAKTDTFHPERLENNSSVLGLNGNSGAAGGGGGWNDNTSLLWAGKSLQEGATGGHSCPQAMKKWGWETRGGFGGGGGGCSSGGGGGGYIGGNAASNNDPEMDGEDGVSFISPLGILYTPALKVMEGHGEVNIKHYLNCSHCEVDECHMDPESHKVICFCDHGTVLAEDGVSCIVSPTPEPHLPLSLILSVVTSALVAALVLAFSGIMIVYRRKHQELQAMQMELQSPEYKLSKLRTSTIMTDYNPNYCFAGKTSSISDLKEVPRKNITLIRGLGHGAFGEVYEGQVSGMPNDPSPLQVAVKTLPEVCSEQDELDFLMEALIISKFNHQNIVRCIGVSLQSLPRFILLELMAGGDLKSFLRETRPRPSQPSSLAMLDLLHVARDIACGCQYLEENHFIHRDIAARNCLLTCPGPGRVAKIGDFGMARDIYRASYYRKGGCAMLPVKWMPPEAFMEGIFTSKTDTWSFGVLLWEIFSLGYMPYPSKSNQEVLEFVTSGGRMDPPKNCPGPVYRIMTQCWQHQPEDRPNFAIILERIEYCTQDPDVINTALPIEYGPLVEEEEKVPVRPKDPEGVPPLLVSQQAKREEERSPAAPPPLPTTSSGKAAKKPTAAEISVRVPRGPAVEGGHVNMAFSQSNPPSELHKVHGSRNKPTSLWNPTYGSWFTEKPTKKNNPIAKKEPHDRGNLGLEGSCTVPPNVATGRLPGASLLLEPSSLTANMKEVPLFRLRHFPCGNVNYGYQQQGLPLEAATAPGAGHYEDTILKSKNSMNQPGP
T1 sequence (Q9UM73 whole entry, change not shown, the tested form may be a part): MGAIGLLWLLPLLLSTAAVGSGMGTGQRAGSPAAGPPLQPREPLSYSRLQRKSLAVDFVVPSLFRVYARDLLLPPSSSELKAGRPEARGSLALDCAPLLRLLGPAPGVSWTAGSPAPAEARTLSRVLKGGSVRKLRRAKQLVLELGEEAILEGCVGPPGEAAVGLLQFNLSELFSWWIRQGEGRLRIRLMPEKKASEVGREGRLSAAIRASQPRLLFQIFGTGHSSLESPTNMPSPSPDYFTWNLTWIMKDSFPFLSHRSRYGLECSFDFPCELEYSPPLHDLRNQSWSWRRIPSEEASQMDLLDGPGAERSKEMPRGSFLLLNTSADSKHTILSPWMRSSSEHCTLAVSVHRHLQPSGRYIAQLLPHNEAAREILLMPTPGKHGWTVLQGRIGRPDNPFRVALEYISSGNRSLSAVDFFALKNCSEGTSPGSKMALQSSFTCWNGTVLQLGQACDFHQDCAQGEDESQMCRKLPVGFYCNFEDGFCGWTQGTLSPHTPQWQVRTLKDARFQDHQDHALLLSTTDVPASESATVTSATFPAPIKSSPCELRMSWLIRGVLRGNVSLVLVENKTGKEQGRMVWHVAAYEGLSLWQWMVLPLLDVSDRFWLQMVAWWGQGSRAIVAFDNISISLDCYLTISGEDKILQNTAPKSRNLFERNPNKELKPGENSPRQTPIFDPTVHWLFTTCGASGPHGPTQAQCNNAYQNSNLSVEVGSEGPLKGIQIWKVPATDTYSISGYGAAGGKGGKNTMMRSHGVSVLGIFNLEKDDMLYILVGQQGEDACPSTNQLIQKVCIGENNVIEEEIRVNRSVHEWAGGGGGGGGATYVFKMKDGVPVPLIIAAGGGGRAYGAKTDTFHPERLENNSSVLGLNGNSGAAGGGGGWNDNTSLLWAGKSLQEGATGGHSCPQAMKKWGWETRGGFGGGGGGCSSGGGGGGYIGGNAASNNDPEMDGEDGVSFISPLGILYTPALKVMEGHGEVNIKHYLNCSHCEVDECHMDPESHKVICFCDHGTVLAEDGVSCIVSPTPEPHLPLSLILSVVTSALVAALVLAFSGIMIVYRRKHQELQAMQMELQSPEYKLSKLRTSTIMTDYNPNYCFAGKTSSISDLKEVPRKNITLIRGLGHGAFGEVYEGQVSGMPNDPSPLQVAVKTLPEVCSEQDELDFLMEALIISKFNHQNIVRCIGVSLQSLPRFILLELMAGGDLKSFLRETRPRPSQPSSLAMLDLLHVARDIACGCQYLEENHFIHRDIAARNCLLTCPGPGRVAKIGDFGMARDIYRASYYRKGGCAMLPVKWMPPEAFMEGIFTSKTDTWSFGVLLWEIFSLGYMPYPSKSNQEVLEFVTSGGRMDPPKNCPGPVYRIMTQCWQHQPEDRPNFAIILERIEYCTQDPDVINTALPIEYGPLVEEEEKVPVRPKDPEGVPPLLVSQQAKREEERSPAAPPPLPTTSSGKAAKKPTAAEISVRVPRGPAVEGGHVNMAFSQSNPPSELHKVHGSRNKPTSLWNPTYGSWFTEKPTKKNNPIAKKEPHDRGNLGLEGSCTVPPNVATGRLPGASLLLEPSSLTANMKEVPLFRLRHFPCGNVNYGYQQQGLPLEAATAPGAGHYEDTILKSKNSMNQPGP
T3 sequence (P07949 29-1114): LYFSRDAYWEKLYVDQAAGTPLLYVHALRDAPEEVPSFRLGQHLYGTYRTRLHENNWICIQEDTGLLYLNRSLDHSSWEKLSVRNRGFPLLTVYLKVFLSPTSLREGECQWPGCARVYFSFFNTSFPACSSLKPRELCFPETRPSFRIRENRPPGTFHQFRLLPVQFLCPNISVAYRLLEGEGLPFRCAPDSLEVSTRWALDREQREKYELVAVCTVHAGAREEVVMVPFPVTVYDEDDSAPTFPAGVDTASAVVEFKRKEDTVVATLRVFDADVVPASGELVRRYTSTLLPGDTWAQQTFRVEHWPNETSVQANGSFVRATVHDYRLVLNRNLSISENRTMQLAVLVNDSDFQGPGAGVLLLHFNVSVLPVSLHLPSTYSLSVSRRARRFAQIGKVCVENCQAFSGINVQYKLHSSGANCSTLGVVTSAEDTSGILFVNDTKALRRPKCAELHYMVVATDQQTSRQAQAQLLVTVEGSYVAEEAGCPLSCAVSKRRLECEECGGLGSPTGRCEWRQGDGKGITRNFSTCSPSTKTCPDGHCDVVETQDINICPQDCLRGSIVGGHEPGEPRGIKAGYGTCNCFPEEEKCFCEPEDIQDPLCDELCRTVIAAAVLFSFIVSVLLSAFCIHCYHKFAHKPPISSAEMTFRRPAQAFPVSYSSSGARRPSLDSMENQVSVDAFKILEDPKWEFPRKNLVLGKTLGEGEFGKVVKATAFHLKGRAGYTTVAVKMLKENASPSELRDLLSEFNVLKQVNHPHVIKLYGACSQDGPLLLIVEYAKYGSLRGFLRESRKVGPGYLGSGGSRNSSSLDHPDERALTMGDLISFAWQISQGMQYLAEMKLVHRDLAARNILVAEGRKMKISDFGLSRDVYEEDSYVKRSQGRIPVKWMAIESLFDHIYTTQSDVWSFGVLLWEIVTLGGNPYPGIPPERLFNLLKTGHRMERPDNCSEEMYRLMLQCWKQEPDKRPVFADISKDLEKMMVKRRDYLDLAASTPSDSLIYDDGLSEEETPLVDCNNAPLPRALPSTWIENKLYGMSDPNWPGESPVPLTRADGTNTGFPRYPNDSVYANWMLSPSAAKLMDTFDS

O=[N+]([O-])c1ccccc1Nc1ccc2c(n1)[nH]c1ccc(/C=C/c3ccccc3)cc12 [R332, N-(2-nitrophenyl)-6-(2′-phenylethenyl)-9H-pyrido[2,3-b]indol-2-amine]
IC50 [1]: 3.6 µM
GI50 [2]: 3 ± 0.8 µM
IC50 [3, 8]: 13 ± 2 µM
IC50 [4]: 1.9 µM
IC50 [5]: 20 ± 1 µM

CCN(CC)CCCOc1ccc(-c2ccc3[nH]c4ncc(/C=C/c5ccccc5)cc4c3c2)cc1 [R338, N,N-diethyl-3-(4-(3-(2′-phenylethenyl)-9H-pyrido[2,3-b]indol-6-yl)phenoxy)propan-1-amine]
IC50 [1]: 0.4 µM
GI50 [2]: 0.5 µM
IC50 [4]: 0.4 µM
IC50 [5]: 0.4 µM

CCCC#Cc1ccc2c(n1)[nH]c1ccccc12 [R341, 2-(pent-1-ynyl)-9H-pyrido[2,3-b]indole]
IC50 [1]: 48 µM
GI50 [2]: 74 µM
IC50 [3, 8]: 11 ± 0.1 µM
IC50 [4]: 17 µM
IC50 [5]: 70 µM

Clc1cnc2[nH]c3ccc(CCc4ccccc4)cc3c2c1 [R351, 3-chloro-6-(2′-phenylethyl)-9H-pyrido[2,3-b]indole]
IC50 [1]: 7.6 µM
GI50 [2]: > 100 µM
IC50 [3, 9]: 66 µM
ALK IC50, 2nd / subsequent determination ([3]; repeated determinations, 2nd or 'then'): inactive
IC50 [4]: 23 µM
IC50 [5]: > 100 µM

C(=C\c1cnc2[nH]c3ccccc3c2c1)/c1ccccc1 [R281, 3-(2′-phenylethenyl)-9H-pyrido[2,3-b]indole]
IC50 [1]: > 100 µM
GI50 [2]: > 100 µM
IC50 [6]: 1.1 µM
IC50 [3, 8]: 0.5 ± 0.3 µM
IC50 [7]: 1.8 µM
IC50 [5]: > 100 µM

COc1ccc(-c2ccc3c(n2)[nH]c2ccccc23)cc1 [R299, 2-(4-methoxyphenyl)-9H-pyrido[2,3-b]indole]
IC50 [1]: 59 µM
GI50 [2]: > 100 µM
IC50 [6]: 4.1 µM
IC50 [3, 8]: 2.1 ± 0.5 µM
IC50 [7]: > 100 µM
IC50 [5]: > 100 µM

COc1ccc(/C=C/c2ccc3[nH]c4ncc(Cl)cc4c3c2)cc1 [R350, (E)-3-chloro-6-(2′-(4-methoxyphenyl)ethenyl)-9H-pyrido[2,3-b]indole]
IC50 [1]: > 100 µM
GI50 [2]: > 100 µM
IC50 [3, 9]: 5.1 µM
IC50 ([3]; repeated determinations, 2nd or 'then', read-out: ALK IC50, 2nd / subsequent determination): 35 µM
ALK IC50, 3rd determination ([3]; repeated determinations, 3rd): inactive
IC50 [4]: > 100 µM
IC50 [5]: > 100 µM

CCN(CC)CCCOc1ccc(-c2ccc3[nH]c4ncc(Cl)cc4c3c2)cc1 [R337, 3-(4-(3-chloro-9H-pyrido[2,3-b]indol-6-yl)phenoxy)-N,N-diethylpropan-1-amine]
IC50 [1]: 2.4 µM
GI50 [2]: 2.5 µM
IC50 [3, 8]: 31 ± 9 µM
IC50 [4]: 1.1 µM
IC50 [5]: 2.6 µM

CCN(CC)CCCOc1ccc(-c2ccc3[nH]c4ncc(C=Cc5ccccc5)cc4c3c2)cc1 [R340]
IC50 [1]: 0.7 µM
GI50 [2]: 1.2 µM
IC50 [3, 8]: 7 ± 1.5 µM
IC50 [4]: 0.5 µM
IC50 [5]: 1 µM

O=[N+]([O-])c1ccccc1Nc1ccnc2[nH]c3ccccc3c12 [R323, N-(2-nitrophenyl)-9H-pyrido[2,3-b]indol-4-amine]
IC50 [1]: > 100 µM
GI50 [2]: 0.21 ± 0.01 µM
IC50 [3, 8]: 23 ± 12 µM
IC50 [4]: 13 µM
IC50 [5]: > 100 µM

O=C(CSc1ccccc1)c1ccc2[nH]c3ncc(Cl)cc3c2c1 [R275, 1-(3-Chloro-9H-pyrido[2,3-b]indol-6-yl)-2-phenylsulfanylethanone]
IC50 [1]: > 25 µM
GI50 [2]: 8 µM
IC50 [6]: 27 µM
IC50 [3, 8]: 20 ± 0.6 µM
IC50 [7]: > 100 µM
IC50 [5]: 2 µM

C(#Cc1ccc2c(n1)[nH]c1ccccc12)c1ccccc1 [R342, 2-(phenylethynyl)-9H-pyrido[2,3-b]indole]
IC50 [1]: 21 µM
GI50 [2]: > 180 µM
IC50 [4]: 33 µM
IC50 [5]: > 100 µM

COc1ccc(-c2cnc3[nH]c4ccccc4c3c2)cc1 [R278, 3-(4-methoxyphenyl)-9H-pyrido[2,3-b]indole]
melting point: > 220 °C
GI50 [2]: > 50 µM
IC50 [6]: 1 µM
IC50 [3, 8]: 1.2 ± 0.2 µM
IC50 [7]: 23 µM
IC50 [5]: > 50 µM
